Source: patent publication US20220409727A1, “Metal Complexes Bearing Bisstyryl-Bipyridine Ligand and Their Use as Photosensitizer Agent in One and Two-Photon Photodynamic Therapy” (Paris Sciences et Lettres, priority 2019, published 2022)
Like-named read-outs stand apart in the source and are kept apart here.

How the values were obtained:
[1] = system: non-cancerous retinal pigment epithelium (RPE-1) cells; experiment: (Photo-)cytotoxicity on 2D cell monolayers, resazurin assay, RPE-1; details: for PI (480 nm): RPE-1, dark vs 480 nm (10 min, 3.1 J/cm^2); for PI (540 nm): RPE-1, dark vs 540 nm (40 min, 9.5 J/cm^2);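 as to all read-outs here: cells exposed to compound 4 h, medium exchanged, then irradiated or kept dark, 44 h further growth, viability by resorufin fluorescence (ex 540 nm, em 590 nm)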
Description: The human glioblastoma astrocytoma (U373) cell line was cultured in MEM medium supplemented with 10% FBS, 1% NEAA (non-essential amino-acids) and 1% penicillin/streptomycin. […] The human retinal epithelial cells (RPE-1, non-cancerous cells immortalized with hTERT) were cultured in DMEM-F12 medium supplemented with 10% FBS and 1% penicillin/streptomycin. All cell lines were obtained from the American Type Culture Collection (ATCC) and cultured at 37° C. and 5% CO2. Before an experiment, the cells were passaged three times.
The cytotoxicity of the compounds was assessed by measuring cell viability using a fluorometric resazurin assay. The cultivated cells were seeded in triplicates in 96 well plates with a density of 4000 cells per well in 100 μL of media. After 24 h, the medium was removed and the cells were treated with increasing concentrations of the compound diluted in cell media achieving a total volume of 200 μL. The cells were incubated with the compound for 4 h. After this time, the media was removed and replaced with 200 μL of fresh medium. For the phototoxicity studies, the cells were exposed to light with an Atlas Photonics LUMOS BIO irradiator. Each well was constantly illuminated with either a 480 nm or 540 nm irradiation. During this time, the temperature was maintained constantly at 37° C. The cells were grown in the incubator for additional 44 h. For the determination of the dark cytotoxicity, the cells were not irradiated and after the medium exchange directly incubated for 44 h. After this time, the medium was replaced with fresh medium containing resazurin with a final concentration of 0.2 mg/mL. After 4 h incubation, the amount of the fluorescent product resorufin was determined upon excitation at 540 nm and measurement its emission at 590 nm using a SpectraMax M2 Microplate Reader (Molecular Devices).
The obtained data was analyzed with the GraphPad Prism software.

[2] = system: human cervical carcinoma (HeLa) cells; experiment: (Photo-)cytotoxicity on 2D cell monolayers, resazurin assay, HeLa; type: cell-based; details: for PI (480 nm): dark vs 480 nm (10 min, 3.1 J/cm^2); for PI (540 nm): dark vs 540 nm (40 min, 9.5 J/cm^2)
Description: Before an experiment, the cells were passaged three times.

[3] = Luminescence lifetime measurements; type: physicochemical; details: excitation at 355 nm; for τ/ns air (Lifetime): air saturated CH3CN; for τ/ns degassed (Lifetime): degassed CH3CN
Outline: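 Lifetimes were measured in air-saturated and degassed CH3CN solutions (absorbance 0.2 at 355 nm), excited at 355 nm by a pulsed Nd-YAG-pumped OPO. Emission was collected at right angles through a monochromator onto a photomultiplier tube.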

HeLa MCTS = experiment: (Photo-)cytotoxicity on 3D multicellular tumor spheroids (ATP, CellTiter-Glo 3D); type: cell-based, human; details: for PI (1-Photon): dark vs 1-Photon irradiation (500 nm, 10 J/cm^2); for PI (2-Photon): dark vs 2-Photon irradiation (800 nm, 10 J/cm^2)
Outline: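 HeLa spheroids grown on agarose from 3000 cells/well over 2–3 days, then treated with compound (2% DMSO) for 12 h. Spheroids kept dark or irradiated at 500 nm one-photon or 800 nm two-photon (10 J/cm^2 each), then incubated 48 h more. Viability read as ATP by luminescence.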

[4] = Luminescence quantum yield measurements; type: physicochemical; design: key: fraction, relative to [Ru(bipy)3]Cl2 reference in CH3CN (Φem=5.9%); details: CH3CN, room temperature, excitation at 355 nm
Outline: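 Samples in CH3CN at absorbance 0.1 at 355 nm, excited at 355 nm by an Nd-YAG-pumped OPO with emission collected at right angle onto a monochromator and CCD. Quantum yield calculated relative to [Ru(bipy)3]Cl2 in CH3CN (Φem=5.9%), correcting for absorbed light fraction, integrated emission and refractive index.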

[5] = system: mouse colon carcinoma (CT-26) cells
[6] = system: human glioblastoma astrocytoma (U373) cells; experiment: (Photo-)cytotoxicity on 2D cell monolayers, resazurin assay, U373; details: for PI (480 nm): U373, dark vs 480 nm (10 min, 3.1 J/cm^2); for PI (540 nm): U373, dark vs 540 nm (40 min, 9.5 J/cm^2); for IC50: compounds 1-3 as chloride salts
[7] = system: human glioblastoma astrocytoma (U373) cells
[8] = Emission measurement in CH3CN; type: physicochemical; details: room temperature, excitation at 355 nm
[9] = dark, 4 h incubation, compounds 1-3 as chloride salts, read-out: IC50 dark
[10] = read-out: IC50 480 nm (10 min, 3.1 J/cm^2), irradiation 480 nm (10 min, 3.1 J/cm^2), compounds 1-3 as chloride salts
[11] = read-out: IC50 540 nm (40 min, 9.5 J/cm^2), irradiation 540 nm (40 min, 9.5 J/cm^2), compounds 1-3 as chloride salts
[12] = 1-Photon irradiation (500 nm, 10 J/cm^2), read-out: IC50 1-Photon irradiation (500 nm, 10 J/cm^2)
[13] = 2-Photon irradiation (800 nm, 10 J/cm^2, section interval of 5 μm), read-out: IC50 2-Photon irradiation (800 nm, 10 J/cm^2)
[14] = dark, 12 h incubation, read-out: IC50 dark
[15] = read-out: IC50 480 nm (10 min, 3.1 J/cm^2), U373, irradiation 480 nm (10 min, 3.1 J/cm^2)
[16] = read-out: IC50 dark, U373, dark, 4 h incubation

| SMILES | PI (480 nm) [1] | PI (540 nm) [1] | PI (480 nm) [2] | PI (540 nm) [2] | IC50 [2, 9] [µM] | IC50 [2, 10] [µM] | IC50 [2, 11] [µM] | τ/ns air (Lifetime) [3] [ns] | τ/ns degassed (Lifetime) [3] [ns] | IC50 (HeLa MCTS; [12]) [µM] | IC50 (HeLa MCTS; [13]) [µM] | PI (1-Photon) (HeLa MCTS) | PI (2-Photon) (HeLa MCTS) | IC50 (HeLa MCTS; [14]) [µM] | ϕem (Luminescence Quantum Yield) [4] | IC50 [5] [µM] | PI (480 nm) [6] | PI (540 nm) [6] | IC50 [6, 15] [µM] | IC50 [6, 16] [µM] | further results |
| --- | --- | --- | --- | --- | --- | --- | --- | --- | --- | --- | --- | --- | --- | --- | --- | --- | --- | --- | --- | --- | --- |
| CN(C)c1ccc(/C=C/c2ccnc(-c3cc(/C=C/c4ccc(N(C)C)cc4)ccn3)c2)cc1.F[P-](F)(F)(F)(F)F.F[P-](F)(F)(F)(F)F.[Ru+2].c1cnc2c(c1)ccc1cccnc12.c1cnc2c(c1)ccc1cccnc12 [Compound 8, [Ru(phen)2((E,E′)-4,4′-Bis[p-(N,N-dimethylamino)styryl]-2,2′-bipyridine)][PF6]2] | >10.9 | >6.4 | >7.9 | >8.8 | > 100 | 12.6 ± 1.3 | 11.4 ± 1.5 | 136 | 334 | 32.6 ± 2.5 | 27.8 ± 3.1 | >9.2 | >10.8 | > 300 | 0.004 | 8.2 ± 1.1 | >8.5 | >7.5 | 11.7 ± 1.5 | > 100 | IC50 [7]: 13.3 ± 2.4 µM; λem/nm (Emission maximum) [8]: 698 nm |
| CN(C)c1ccc(/C=C/c2ccnc(-c3cc(/C=C/c4ccc(N(C)C)cc4)ccn3)c2)cc1.F[P-](F)(F)(F)(F)F.F[P-](F)(F)(F)(F)F.[Ru+2].c1ccc(-c2ccnc3c2ccc2c(-c4ccccc4)ccnc23)cc1.c1ccc(-c2ccnc3c2ccc2c(-c4ccccc4)ccnc23)cc1 [Compound 10, [Ru(4,7-Diphenyl-1,10-phenanthroline)2((E,E′)-4,4′-Bis[p-(N,N-dimethylamino)styryl]-2,2′-bipyridine)][PF6]2] | 8.7 | 7.4 | 6.7 | 6.3 | 10.7 ± 1.4 | 1.6 ± 0.3 | 1.7 ± 0.4 | 72 | 339 | 8.9 ± 0.7 | 3.1 ± 0.6 | 3.1 | 9.0 | 27.8 ± 3.6 | 0.006 | 1.3 ± 0.3 | 7.6 | 6.5 | 1.8 ± 0.3 | 13.7 ± 1.1 | IC50 [7]: 2.1 ± 0.4 µM; λem/nm (Emission maximum) [8]: 698 nm |
| COc1ccc(/C=C/c2ccnc(-c3cc(/C=C/c4ccc(OC)cc4)ccn3)c2)cc1.COc1ccc(/C=C/c2ccnc(-c3cc(/C=C/c4ccc(OC)cc4)ccn3)c2)cc1.F[P-](F)(F)(F)(F)F.F[P-](F)(F)(F)(F)F.[Ru+2].c1ccc(-c2ccccn2)nc1 [Compound 5, [Ru(bipy)((E,E′)-4,4′-Bis[p-methoxystyryl]-2,2′-bipyridine)2][PF6]2] | >9.8 | >7.9 | >16.7 | >12.7 | > 100 | 6.4 ± 1.7 | 7.9 ± 1.3 | 36 | 231 | 19.3 ± 2.7 | 13.4 ± 3.9 | >5.2 | >7.5 | > 100 | 0.014 | 5.1 ± 1.1 | >6.5 | >5.6 | 15.3 ± 2.2 | > 100 | IC50 [7]: 17.8 ± 3.2 µM; λem/nm (Emission maximum) [8]: 674 nm |
